Laboratory results: patent US9738634B2, “Heterocyclic amide compound and herbicide” (SYNGENTA PARTICIPATIONS AG, priority 2013, dated 2017)

Columns and labels:
Assay type in all cases: in vivo
Details in all cases: treatment dosage 320 g/ha
barnyard grass [1] = experiment: Test Example 3: weedkilling efficacy through soil treatment; F: barnyard grass
Method in brief: (§1)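 Crop and weed responses were judged three weeks after a uniform surface spray of the water-diluted emulsion at the given g/ha rate. Seeds sat beneath about 1.5 cm of sterilized diluvial soil, and boxes stood in a greenhouse at 25 to 30° C.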

common wind-grass [2] = experiment: Test Example 4: weedkilling efficacy by foliar treatment; J: common wind-grass
Method in brief: (§2)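 Seeds are spot-sown into sterilized diluvial soil and covered with about 1.5 cm of soil. After 14 days' greenhouse growth at 25 to 30° C, plants are sprayed on stems and leaves with diluted emulsion at the stated g/ha rate, then scored at 3 weeks.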

black-grass [3] = experiment: Test Example 3: weedkilling efficacy through soil treatment; H: black-grass
Method in brief: as §1

fig-leafed goosefoot [4] = experiment: Test Example 3: weedkilling efficacy through soil treatment; M: fig-leafed goosefoot
Method in brief: as §1

black-grass [5] = experiment: Test Example 4: weedkilling efficacy by foliar treatment; H: black-grass
Method in brief: as §2

green foxtail [6] = experiment: Test Example 4: weedkilling efficacy by foliar treatment; E: green foxtail
Method in brief: as §2

catchweed [7] = experiment: Test Example 4: weedkilling efficacy by foliar treatment; O: catchweed
Method in brief: as §2

soybean [8] = experiment: Test Example 4: foliar treatment, effect on crop; d: soybean
Method in brief: as §2

fig-leafed goosefoot [9] = experiment: Test Example 4: weedkilling efficacy by foliar treatment; M: fig-leafed goosefoot
Method in brief: as §2

common wind-grass [10] = experiment: Test Example 3: weedkilling efficacy through soil treatment; J: common wind-grass
Method in brief: as §1

green foxtail [11] = experiment: Test Example 3: weedkilling efficacy through soil treatment; E: green foxtail
Method in brief: as §1

birds-eye speedwell = experiment: Test Example 3: weedkilling efficacy through soil treatment; p: birds-eye speedwell
Method in brief: as §1

corn [12] = experiment: Test Example 3: soil treatment, effect on crop; c: corn
Method in brief: as §1

wheat [13] = experiment: Test Example 4: foliar treatment, effect on crop; e: wheat
Method in brief: as §2

rapeseed [14] = experiment: Test Example 4: foliar treatment, effect on crop; g: rapeseed
Method in brief: as §2

wild oat [15] = experiment: Test Example 3: weedkilling efficacy through soil treatment; G: wild oat
Method in brief: as §1

soybean [16] = experiment: Test Example 3: soil treatment, effect on crop; d: soybean
Method in brief: as §1

Indian mallow [17] = experiment: Test Example 4: weedkilling efficacy by foliar treatment; K: Indian mallow
Method in brief: as §2

chickweed [18] = experiment: Test Example 4: weedkilling efficacy by foliar treatment; N: chickweed
Method in brief: as §2

chickweed [19] = experiment: Test Example 3: weedkilling efficacy through soil treatment; N: chickweed
Method in brief: as §1

crabgrass [20] = experiment: Test Example 4: weedkilling efficacy by foliar treatment; D: crabgrass
Method in brief: as §2

Italian ryegrass [21] = experiment: Test Example 4: weedkilling efficacy by foliar treatment; I: Italian ryegrass
Method in brief: as §2

catchweed [22] = experiment: Test Example 3: weedkilling efficacy through soil treatment; O: catchweed
Method in brief: as §1

barnyard grass [23] = experiment: Test Example 4: weedkilling efficacy by foliar treatment; F: barnyard grass
Method in brief: as §2

redroot pigweed [24] = experiment: Test Example 3: weedkilling efficacy through soil treatment; L: redroot pigweed
Method in brief: as §1

corn [25] = experiment: Test Example 4: foliar treatment, effect on crop; c: corn
Method in brief: as §2

directly sown rice [26] = experiment: Test Example 4: foliar treatment, effect on crop; b: directly sown rice
Method in brief: as §2

wild oat [27] = experiment: Test Example 4: weedkilling efficacy by foliar treatment; G: wild oat
Method in brief: as §2

rapeseed [28] = experiment: Test Example 3: soil treatment, effect on crop; g: rapeseed
Method in brief: as §1

Indian mallow [29] = experiment: Test Example 3: weedkilling efficacy through soil treatment; K: Indian mallow
Method in brief: as §1

wheat [30] = experiment: Test Example 3: soil treatment, effect on crop; e: wheat
Method in brief: as §1

beet [31] = experiment: Test Example 4: foliar treatment, effect on crop; f: beet
Method in brief: as §2

directly sown rice [32] = experiment: Test Example 3: soil treatment, effect on crop; b: directly sown rice
Method in brief: as §1

Italian ryegrass [33] = experiment: Test Example 3: weedkilling efficacy through soil treatment; I: Italian ryegrass
Method in brief: as §1

crabgrass [34] = experiment: Test Example 3: weedkilling efficacy through soil treatment; D: crabgrass
Method in brief: as §1

redroot pigweed [35] = experiment: Test Example 4: weedkilling efficacy by foliar treatment; L: redroot pigweed
Method in brief: as §2

oval-leafed pondweed [36] = experiment: Test Example 2: weedkilling efficacy, growth period weed treatment in the submerged state; C: oval-leafed pondweed
Method in brief: (§3)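 Seedlings at 1-2 leaves in 4 cm-deep submerged alluvial soil received emulsion formulations on the water surface, dosed per hectare; effects were judged 3 weeks on.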

barnyard grass [37] = experiment: Test Example 1: weedkilling efficacy, preemergent weed treatment in the submerged state; A: barnyard grass
Method in brief: (§4)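 Pre-emergence paddy test: weed seeds sown in submerged alluvial soil (4 cm water), 2.5-leaf rice transplanted, water-diluted emulsion applied to water surface at sowing at stated g/ha. Scored at 3 weeks, greenhouse 25–30 °C.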

barnyard grass [38] = experiment: Test Example 2: weedkilling efficacy, growth period weed treatment in the submerged state; A: barnyard grass
Method in brief: as §3

bulrush [39] = experiment: Test Example 1: weedkilling efficacy, preemergent weed treatment in the submerged state; B: bulrush
Method in brief: as §4

oval-leafed pondweed [40] = experiment: Test Example 1: weedkilling efficacy, preemergent weed treatment in the submerged state; C: oval-leafed pondweed
Method in brief: as §4

beet [41] = experiment: Test Example 3: soil treatment, effect on crop; f: beet
Method in brief: as §1

transplanted rice = experiment: Test Example 1: preemergent weed treatment in the submerged state, effect on crop; a: transplanted rice
Method in brief: as §4

bulrush [42] = experiment: Test Example 2: weedkilling efficacy, growth period weed treatment in the submerged state; B: bulrush
Method in brief: as §3

## CC1=C(c2cccnc2F)C(=O)N(C(C)(C)C(=O)Nc2cc(Cl)cc(Cl)n2)CO1 [B-2-11]
Barnyard grass [1]
  F (barnyard grass) weedkilling efficacy grade: 5 (weed kill ratio 90% or more, (practically complete withering))
Common wind-grass [2]
  J (common wind-grass) weedkilling efficacy grade: 5 (weed kill ratio 90% or more, (practically complete withering))
black-grass [3]
  H (black-grass) weedkilling efficacy grade: 5 (weed kill ratio 90% or more, (practically complete withering))
fig-leafed goosefoot [4]
  M (fig-leafed goosefoot) weedkilling efficacy grade: 4 (weed kill ratio 70% or more, less than 90%)
black-grass [5]
  H (black-grass) weedkilling efficacy grade: 5 (weed kill ratio 90% or more, (practically complete withering))
Green foxtail [6]
  E (green foxtail) weedkilling efficacy grade: 5 (weed kill ratio 90% or more, (practically complete withering))
Catchweed [7]
  O (catchweed) weedkilling efficacy grade: 4 (weed kill ratio 70% or more, less than 90%)
Soybean [8]
  d (soybean) effect on crop grade: 4 (weed kill ratio 70% or more, less than 90%)
fig-leafed goosefoot [9]
  M (fig-leafed goosefoot) weedkilling efficacy grade: 5 (weed kill ratio 90% or more, (practically complete withering))
Common wind-grass [10]
  J (common wind-grass) weedkilling efficacy grade: 5 (weed kill ratio 90% or more, (practically complete withering))
Green foxtail [11]
  E (green foxtail) weedkilling efficacy grade: 5 (weed kill ratio 90% or more, (practically complete withering))
birds-eye speedwell
  P (birds-eye speedwell) weedkilling efficacy grade: 5 (weed kill ratio 90% or more, (practically complete withering))
Corn [12]
  c (corn) effect on crop grade: 1 (weed kill ratio 5% or more, less than 20%)
Wheat [13]
  e (wheat) effect on crop grade: 0 (weed kill ratio 5% or less (practically no effect))
Rapeseed [14]
  g (rapeseed) effect on crop grade: 4 (weed kill ratio 70% or more, less than 90%)
Wild oat [15]
  G (wild oat) weedkilling efficacy grade: 3 (weed kill ratio 40% or more, less than 70%)
Soybean [16]
  d (soybean) effect on crop grade: 0 (weed kill ratio 5% or less (practically no effect))
Indian mallow [17]
  K (Indian mallow) weedkilling efficacy grade: 5 (weed kill ratio 90% or more, (practically complete withering))
Chickweed [18]
  N (chickweed) weedkilling efficacy grade: 4 (weed kill ratio 70% or more, less than 90%)
Chickweed [19]
  N (chickweed) weedkilling efficacy grade: 4 (weed kill ratio 70% or more, less than 90%)
Crabgrass [20]
  D (crabgrass) weedkilling efficacy grade: 5 (weed kill ratio 90% or more, (practically complete withering))
Italian ryegrass [21]
  I (Italian ryegrass) weedkilling efficacy grade: 5 (weed kill ratio 90% or more, (practically complete withering))
Catchweed [22]
  O (catchweed) weedkilling efficacy grade: 3 (weed kill ratio 40% or more, less than 70%)
Barnyard grass [23]
  F (barnyard grass) weedkilling efficacy grade: 5 (weed kill ratio 90% or more, (practically complete withering))
Redroot pigweed [24]
  L (redroot pigweed) weedkilling efficacy grade: 0 (weed kill ratio 5% or less (practically no effect))
Corn [25]
  c (corn) effect on crop grade: 5 (weed kill ratio 90% or more, (practically complete withering))
Directly sown rice [26]
  b (directly sown rice) effect on crop grade: 3 (weed kill ratio 40% or more, less than 70%)
Wild oat [27]
  G (wild oat) weedkilling efficacy grade: 4 (weed kill ratio 70% or more, less than 90%)
Rapeseed [28]
  g (rapeseed) effect on crop grade: 1 (weed kill ratio 5% or more, less than 20%)
Indian mallow [29]
  K (Indian mallow) weedkilling efficacy grade: 0 (weed kill ratio 5% or less (practically no effect))
Wheat [30]
  e (wheat) effect on crop grade: 0 (weed kill ratio 5% or less (practically no effect))
Beet [31]
  f (beet) effect on crop grade: 4 (weed kill ratio 70% or more, less than 90%)
Directly sown rice [32]
  b (directly sown rice) effect on crop grade: 3 (weed kill ratio 40% or more, less than 70%)
Italian ryegrass [33]
  I (Italian ryegrass) weedkilling efficacy grade: 5 (weed kill ratio 90% or more, (practically complete withering))
Crabgrass [34]
  D (crabgrass) weedkilling efficacy grade: 5 (weed kill ratio 90% or more, (practically complete withering))
Redroot pigweed [35]
  L (redroot pigweed) weedkilling efficacy grade: 4 (weed kill ratio 70% or more, less than 90%)

## CC1=C(c2cccnc2F)C(=O)N(C(C)(C)C(=O)Nc2cc(Cl)cc(Br)n2)CO1 [B-2-12]
Barnyard grass [1]
  F (barnyard grass) weedkilling efficacy grade: 5 (weed kill ratio 90% or more, (practically complete withering))
Common wind-grass [2]
  J (common wind-grass) weedkilling efficacy grade: 5 (weed kill ratio 90% or more, (practically complete withering))
oval-leafed pondweed [36]
  C (oval-leafed pondweed) weedkilling efficacy grade: 5 (weed kill ratio 90% or more, (practically complete withering))
black-grass [3]
  H (black-grass) weedkilling efficacy grade: 5 (weed kill ratio 90% or more, (practically complete withering))
fig-leafed goosefoot [4]
  M (fig-leafed goosefoot) weedkilling efficacy grade: 3 (weed kill ratio 40% or more, less than 70%)
black-grass [5]
  H (black-grass) weedkilling efficacy grade: 5 (weed kill ratio 90% or more, (practically complete withering))
Green foxtail [6]
  E (green foxtail) weedkilling efficacy grade: 5 (weed kill ratio 90% or more, (practically complete withering))
Catchweed [7]
  O (catchweed) weedkilling efficacy grade: 4 (weed kill ratio 70% or more, less than 90%)
Barnyard grass [37]
  A (barnyard grass) weedkilling efficacy grade: 5 (weed kill ratio 90% or more, (practically complete withering))
Soybean [8]
  d (soybean) effect on crop grade: 4 (weed kill ratio 70% or more, less than 90%)
fig-leafed goosefoot [9]
  M (fig-leafed goosefoot) weedkilling efficacy grade: 4 (weed kill ratio 70% or more, less than 90%)
Common wind-grass [10]
  J (common wind-grass) weedkilling efficacy grade: 5 (weed kill ratio 90% or more, (practically complete withering))
Green foxtail [11]
  E (green foxtail) weedkilling efficacy grade: 5 (weed kill ratio 90% or more, (practically complete withering))
birds-eye speedwell
  P (birds-eye speedwell) weedkilling efficacy grade: 4 (weed kill ratio 70% or more, less than 90%)
Corn [12]
  c (corn) effect on crop grade: 0 (weed kill ratio 5% or less (practically no effect))
Wheat [13]
  e (wheat) effect on crop grade: 0 (weed kill ratio 5% or less (practically no effect))
Rapeseed [14]
  g (rapeseed) effect on crop grade: 4 (weed kill ratio 70% or more, less than 90%)
Barnyard grass [38]
  A (barnyard grass) weedkilling efficacy grade: 5 (weed kill ratio 90% or more, (practically complete withering))
Wild oat [15]
  G (wild oat) weedkilling efficacy grade: 1 (weed kill ratio 5% or more, less than 20%)
Soybean [16]
  d (soybean) effect on crop grade: 0 (weed kill ratio 5% or less (practically no effect))
Indian mallow [17]
  K (Indian mallow) weedkilling efficacy grade: 5 (weed kill ratio 90% or more, (practically complete withering))
Chickweed [18]
  N (chickweed) weedkilling efficacy grade: 4 (weed kill ratio 70% or more, less than 90%)
Chickweed [19]
  N (chickweed) weedkilling efficacy grade: 4 (weed kill ratio 70% or more, less than 90%)
Crabgrass [20]
  D (crabgrass) weedkilling efficacy grade: 5 (weed kill ratio 90% or more, (practically complete withering))
Bulrush [39]
  B (bulrush) weedkilling efficacy grade: 5 (weed kill ratio 90% or more, (practically complete withering))
Italian ryegrass [21]
  I (Italian ryegrass) weedkilling efficacy grade: 5 (weed kill ratio 90% or more, (practically complete withering))
oval-leafed pondweed [40]
  C (oval-leafed pondweed) weedkilling efficacy grade: 5 (weed kill ratio 90% or more, (practically complete withering))
Catchweed [22]
  O (catchweed) weedkilling efficacy grade: 2 (weed kill ratio 20% or more, less than 40%)
Barnyard grass [23]
  F (barnyard grass) weedkilling efficacy grade: 5 (weed kill ratio 90% or more, (practically complete withering))
Redroot pigweed [24]
  L (redroot pigweed) weedkilling efficacy grade: 0 (weed kill ratio 5% or less (practically no effect))
Corn [25]
  c (corn) effect on crop grade: 4 (weed kill ratio 70% or more, less than 90%)
Directly sown rice [26]
  b (directly sown rice) effect on crop grade: 5 (weed kill ratio 90% or more, (practically complete withering))
Wild oat [27]
  G (wild oat) weedkilling efficacy grade: 4 (weed kill ratio 70% or more, less than 90%)
Rapeseed [28]
  g (rapeseed) effect on crop grade: 0 (weed kill ratio 5% or less (practically no effect))
Beet [41]
  f (beet) effect on crop grade: 0 (weed kill ratio 5% or less (practically no effect))
Indian mallow [29]
  K (Indian mallow) weedkilling efficacy grade: 0 (weed kill ratio 5% or less (practically no effect))
Wheat [30]
  e (wheat) effect on crop grade: 0 (weed kill ratio 5% or less (practically no effect))
Beet [31]
  f (beet) effect on crop grade: 4 (weed kill ratio 70% or more, less than 90%)
Transplanted rice
  a (transplanted rice) effect on crop grade: 5 (weed kill ratio 90% or more, (practically complete withering))
Directly sown rice [32]
  b (directly sown rice) effect on crop grade: 3 (weed kill ratio 40% or more, less than 70%)
Italian ryegrass [33]
  I (Italian ryegrass) weedkilling efficacy grade: 5 (weed kill ratio 90% or more, (practically complete withering))
Bulrush [42]
  B (bulrush) weedkilling efficacy grade: 5 (weed kill ratio 90% or more, (practically complete withering))
Crabgrass [34]
  D (crabgrass) weedkilling efficacy grade: 5 (weed kill ratio 90% or more, (practically complete withering))
Redroot pigweed [35]
  L (redroot pigweed) weedkilling efficacy grade: 4 (weed kill ratio 70% or more, less than 90%)
